The source of these data is patent US9452195B2, “Use of CHEC peptides to treat neurological and cardiovascular diseases and disorders” (Drexel University, priority 2010, dated 2016).

One experiment relates to phospholipase A2 (sPLA2). The note with it: statement referring to earlier patents and applications; cited from earlier work.
In a further experiment the test system is neuron. The conditions noted are these: cited from earlier work.
The subject of experiment [1] is KA induced motor seizures in rats. Kind of experiment: Kainic acid (KA) induced motor seizures in rats, graded by Racine scale. It counts as in vivo, rat. Details: key to Max Seizure Stage: 1: hypoactivity, mouth and facial automatism; 2: head nodding and mastication; 3: forelimb clonus without rearing; 4: bilateral forelimb clonus and rearing; 5: rearing and loss of posture; Status epilepticus: stage 4-5 lasting for 30 min,. How it is done:
Kainic acid (KA) was administered intraperitoneal (IP) to rats at doses ranging from […]. Rats age postnatal day (P) 12-15 were administered 2 mg/kg KA. Rats age P35-40 were administered 6 mg/kg KA. The KA was delivered in a constant volume of phosphate buffer (5 ml/kg) and reliably produced motor seizure activity.
Following IP administration of KA, rats were video-recorded for 3 hours, and then daily for 3 hours. The video recordings are later scored blind. The severity and latency of seizures is graded for P35 rats by a classical scale shown in Table 1 (Racine, 1972, Electroencephalog. Clin. Neurophysiol. 32:281-294).
Rats (250-300 g) are done in pairs and administered either a control peptide/vehicle or CHEC peptide in vehicle at various intervals pre- or post KA treatment. Control or CHEC peptide are administered either 4, 2 or 0.5 hours pre-KA or 0.25, and 0.5 hrs post-KA. The effects of CHEC-7 and CHEC-9 are compared because the peptides have different pharmakinetic profiles in rat.
Forty minutes prior to KA administration, the rats were administered either control peptide or CHEC-9 at the indicated dosages and routes of administration. The resulting motor seizures were graded as described elsewhere herein. […] In one set of experiments, rats were pre-fed lecithin or phosphatidylcholine prior to administering the KA.

Experiment [2] deals with hippocampal neuronal activity in kainic acid-treated rats. Kind of experiment: Multiunit activity in CA1 cell field of hippocampus of kainic acid treated rats. It counts as in vivo, rat. The conditions noted are these: CHEC-9 1 mg/kg orally 40 min before KA 10 mg/kg IP. An excerpt:
FIG. 1, is a graph depicting multiunit activity recorded from the CA1 cell field of the hippocampus of awake, freely moving kainic acid-treated rats that have been treated either with CHEC-9 or vehicle. Multiunit activity is presented as impulses recorded per second and provided as a percentage of baseline activity measured prior to seizure induction.
Rats were implanted with a multichannel electrode bundle placed in the CA1 cell field of the hippocampus one week prior to the experiment. Baseline hippocampal neuronal activity (impulses per second) was collected during a 30 minute control period. After 30 minutes of baseline neuronal activity was collected, either CHEC-9 (1 mg/kg) or vehicle was administered orally 40 min prior to IP administration of kainic acid (10 mg/kg). The duration of the KA administration varied. Neuronal activity in response to KA administration is presented as % of baseline activity (FIG. 1).

Regarding CAHAQAESC [CHEC-9 peptide variant], the “inhibition of phospholipase A2 / sPLA2” value in the experiment on phospholipase A2 (sPLA2) is given as “inhibit phospholipase A2”. For the same substance, in the experiment with neuron, the neuron protective activity entry was “also has neuron protective activity”.
As to CHEASAAQC [CHEC-9], the “Max Seizure Stage” value in experiment [1] (individual rat, C9 0.5 mg/kg sc 40 min before KA 6 mg/kg ip) was 2; in experiment [1] (individual rat, C9 1.0 mg/kg po 40 min before KA 5 mg/kg ip), 1; in experiment [1] (individual rats, C9 0.5 mg/kg sc 40 min before KA 5 mg/kg ip), 1; in experiment [1] (individual rats, C9 1.0 mg/kg po 40 min before KA 10 mg/kg ip, female rats) it was 3; in experiment [1] (individual rats, C9 1.0 mg/kg po 40 min before KA 10 mg/kg ip, male rats) it was 1. Besides, the “likelihood of severe motor seizures versus vehicle control” value in experiment [1] (rats 250-300 g, peptide given 40 min before KA) is “vehicle control were more likely to exhibit severe motor seizures than rats that were administered CHEC-9”. Moreover, the “seizure symptoms by the end of the experiment” value in experiment [2] (vehicle rat reached status epilepticus) is on record as “no obvious symptoms”. Further, the “effect of KA on neuronal activity (multiunit activity, % of baseline)” value in experiment [2] (versus vehicle) is on record as “much smaller effect of KA on neuronal activity”. Moreover, in the experiment with phospholipase A2 (sPLA2), the “inhibition of phospholipase A2 / sPLA2” value is “inhibit phospholipase A2”.
CHEASQC [CHEC-7]: the “inhibition of phospholipase A2 / sPLA2” value in the experiment on phospholipase A2 (sPLA2) is “even more potent as a sPLA2 inhibitor than CHEC-9”.
